From publication PMC2011259, “Pentamethylmelamine (PMM): Phase I clinical and pharmacokinetic studies” (British Journal of Cancer, 1983)

What was measured:
[1] = Pharmacokinetic studies: plasma levels of PMM, TMM and TRIMM by gas liquid chromatography; type: in vivo, man; details: for Detection as PMM metabolite in plasma / Quantity of metabolite in plasma: after i.v. PMM; for Detection as PMM metabolite in plasma: patients studied; for Plasma concentration relative to parent drug: patients with normal liver function, 2 h after the end of the infusion
Excerpt: Br. J. Cancer (1983), 47, 027-033 Pentamethylmelamine (PMM): Phase I clinical and pharmacokinetic studies J.R.F. Muindi*, D.R. Newellt, I.E. Smith* & K.R. Harrapt *Division of Medicine, Institute of Cancer Research and Royal Marsden Hospital, and the tDepartment of Biochemical Pharmacology, Institute of Cancer Research, Sutton, Surrey. […] PMM has been administered as an intravenous infusion to 17 patients in a Phase I clinical trial. […] In the present study the results of the Phase I clinical evaluation of PMM at the Royal Marsden Hospital are reported. In addition to the clinical assessment of patients, pharmacokinetic studies were also performed. […] (Broggini et al., 1981; Morimoto et al., 1980; Ames et al., 1979; Casper et al., 1981; Idhe et al., 1981; Benvenuto et al., 1981; Rutty et al., 1982). […] The mechanism of action of N-methylolmelamines is, however, still uncertain. To ascertain the rate and extent of PMM metabolism in man, plasma levels of the parent drug and the first two products of oxidative N- demethylation i.e. N2,N2,N4,N6-tetramethyl- melamine (TMM) and N2,N4,N6-trimethylmelamine (TRIMM) were measured (Figure 2). […] Materials and methods Patient selection The patients entered in the PMM Phase I clinical study were all under the care of the Royal Marsden Hospital. […] Additional criteria required for eligibility to enter into the study included: WBC and platelet count > 3000 uM I-' and > 100,000 pM 11 respectively; blood urea and serum creatinine < 8 mM ,M I1- and < 106 pM 1 respectively. None of the patients had received cancer chemotherapy or radiotherapy during the 3-week period preceding their entry into the study. […] The treatment protocol was approved by the Ethical Committee of the Royal Marsden Hospital and informed consent was obtained from all patients prior to entry into the study. […] It was supplied by Prof. W.C.J. Ross of the Chester Beatty Research Institute, London, as a white crystalline powder. PMM (2mg ml-') was infused intravenously as a 2% ethanol 5% dextrose solution after micropore (0.22 pm) filtration. All formulated PMM infusions were used within 24h of preparation, as a sterility precaution. PMM was initially given at a dose of […] and the dose escalated to 1300mgm-2 according to a modified Fibonacci scheme (Table II). At higher PMM doses, requiring large infusion volumes, the infusion time was extended from 1 to 4 h. No dose escalation was TRIMM CH3 Nc"N H 11 H Ii N N H CH3 HCHO 1. carried out in the same patient.

[2] = oral HMM 120-300 mg m-2, n = 9 (9/11 patients), mean + SEM; ref D'Incalci et al. (1978); cited from earlier work
[3] = patient eight, PMM dose 300 mg m-2 i.v., hepatic function abnormal
[4] = patient five, PMM dose 200 mg m-2 i.v., hepatic function abnormal
[5] = patient four, PMM dose 200 mg m-2 i.v., hepatic function normal
[6] = patient one, PMM dose 300 mg m-2 i.v., hepatic function normal
[7] = patient seven, PMM dose 500 mg m-2 i.v., hepatic function normal
[8] = patient six, PMM dose 100 mg m-2 i.v., hepatic function normal
[9] = patient three, PMM dose 500 mg m-2 i.v., hepatic function abnormal
[10] = patient two, PMM dose 100 mg m-2 i.v., hepatic function normal

For `CNc1nc(N)nc(NC)n1` [N2,N4-dimethylmelamine], the “Detection as PMM metabolite in plasma” value [1] was “observed”.
For `CNc1nc(NC)nc(N(C)C)n1` [TMM, N2,N2,N4,N6-tetramethylmelamine], the “Detection as PMM metabolite in plasma” value [1] was “detected”, the “Area under the plasma conc. v. time curve” value (“Area” below) [1, 3] was 2121 IM x min and the “Area” value [1, 4] was 1804 IM x min. The “Area” value [1, 5] was 397 IM x min, the “Area” value [1, 6] was 3697 IM x min and the “Area” value [1, 7] was 2693 IM x min. The “Area” value [1, 8] was 204 IM x min, the “Area” value [1, 9] was 6206 IM x min and the “Area” value [1, 10] was 151 IM x min. The “Plasma concentration relative to parent drug” value [1] was “greater concentrations than the parent drug”.
For `CN(C)c1nc(N(C)C)nc(N(C)C)n1` [HMM, hexamethylmelamine], the “HMM AUC 0-12h” value [2] is listed as 763 +163 iMxmin.
With `CNc1nc(NC)nc(NC)n1` [TRIMM, N2,N4,N6-trimethylmelamine] the “Detection as PMM metabolite in plasma” value [1] was “detected”, the “Area” value [1, 3] was 627 IM x min and the “Area” value [1, 4] was 1438 IM x min. The “Area” value [1, 5] was 1070 IM x min, the “Area” value [1, 6] was 4091 IM x min and the “Area” value [1, 7] was 3710 IM x min. For the same compound, the “Area” value [1, 8] was 573 IM x min, the “Area” value [1, 9] was 7995 IM x min and the “Area” value [1, 10] was 189 IM x min. The “Plasma concentration relative to parent drug” value [1] was “greater concentrations than the parent drug”.
With `CNc1nc(N)nc(N(C)C)n1` [N2,N2,N4-trimethylmelamine] the “Quantity of metabolite in plasma” value [1] was “minor quantities”.
In the case of `CN(C)c1nc(N)nc(N(C)C)n1` [N2,N2,N4,N4-tetramethylmelamine], the “Quantity of metabolite in plasma” value [1] is reported as “minor quantities”.
